Reference: US20230085307A1, “PYRIDAZINONE COMPOUND AND HERBICIDE” (NISSAN CHEMICAL CORPORATION, priority 2019, published 2023)

Experiments:
[1] = tested on: late watergrass; test: Test Example 1: herbicidal activity, application before weed generation under submerged conditions (Table 16, symbol A); assay type: in vivo, late watergrass (Echinochloa oryzicola); settings: amount of applied herbicide 320 g/ha
Procedure, shortened: (§1)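 Submerged Wagner pots (alluvial soil, 4 cm water) sown with weed seeds and planted with 2.5-leaf rice seedlings; emulsifiable concentrate diluted in water applied to water surface on sowing day. Held in greenhouse at 25-30 °C; injury scored 0-5 by herbicidal rate after three weeks.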

[2] = tested on: Japanese bulrush; test: Test Example 1: herbicidal activity, application before weed generation under submerged conditions (Table 16, symbol B); assay type: in vivo, Japanese bulrush (Schoenoplectus juncoides); settings: amount of applied herbicide 320 g/ha
Procedure, shortened: as §1

[3] = tested on: Japanese bulrush; test: Test Example 2: herbicidal activity, application during weed generation under submerged conditions (Table 17, symbol B); assay type: in vivo, Japanese bulrush (Schoenoplectus juncoides); settings: AAH 320 g/ha; application during weed generation, submerged conditions
Procedure, shortened: (§2)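 Wagner pot, alluvial soil, 4 cm flood; mixed sowing of all species; greenhouse 25° C.–30° C. Emulsifiable formulation, water-diluted to predetermined dose, applied to paddy water at 1–2 leaf stage. Effect rated at 3 wk using the earlier test's scoring criteria.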

[4] = tested on: oval-leafed pondweed; test: Test Example 2: herbicidal activity, application during weed generation under submerged conditions (Table 17, symbol C); assay type: in vivo, oval-leafed pondweed (Monochoria vaginalis); settings: AAH 320 g/ha; application during weed generation, submerged conditions
Procedure, shortened: as §2

[5] = tested on: southern crabgrass; test: Test Example 4: herbicidal effect by soil treatment (Table 19, symbol F); assay type: in vivo, southern crabgrass (Digitaria ciliaris); settings: amount of applied herbicide 320 g/ha
Procedure, shortened: (§3)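 Pre-emergence style soil spray: seeds under ~1.5 cm sterilized diluvial soil received a uniform coat of emulsion diluted to the predetermined herbicide amount. Greenhouse 25–30° C; readout at week three on previously defined criteria.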

[6] = tested on: barnyard grass; test: Test Example 4: herbicidal effect by soil treatment (Table 19, symbol H); assay type: in vivo, barnyard grass (Echinochloa crus-galli); settings: amount of applied herbicide 320 g/ha
Procedure, shortened: as §3

[7] = tested on: wild oat; test: Test Example 4: herbicidal effect by soil treatment (Table 19, symbol I); assay type: in vivo, wild oat (Avena fatua); settings: amount of applied herbicide 320 g/ha
Procedure, shortened: as §3

[8] = tested on: blackgrass; test: Test Example 4: herbicidal effect by soil treatment (Table 19, symbol J); assay type: in vivo, blackgrass (Alopecurus myosuroides); settings: amount of applied herbicide 320 g/ha
Procedure, shortened: as §3

[9] = tested on: Italian ryegrass; test: Test Example 4: herbicidal effect by soil treatment (Table 19, symbol K); assay type: in vivo, Italian ryegrass (Lolium multiflorum); settings: amount of applied herbicide 320 g/ha
Procedure, shortened: as §3

[10] = tested on: redroot pigweed; test: Test Example 4: herbicidal effect by soil treatment (Table 19, symbol N); assay type: in vivo, redroot pigweed (Amaranthus retroflexus); settings: amount of applied herbicide 320 g/ha
Procedure, shortened: as §3

[11] = tested on: false cleavers; test: Test Example 4: herbicidal effect by soil treatment (Table 19, symbol Q); assay type: in vivo, false cleavers (Galium spurium); settings: amount of applied herbicide 320 g/ha
Procedure, shortened: as §3

[12] = tested on: green foxtail; test: Test Example 5: herbicidal effect by foliage application, plastic box (Table 20, symbol G); assay type: in vivo, green foxtail (Setaria viridis); settings: for herbicidal effect on green foxtail (G): foliage application, three weeks after application
Procedure, shortened: (§4)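 Plants were sown into sterilized diluvial soil under about 1.5 cm cover and kept in a greenhouse at 25° C. to 30° C. Fourteen days on, foliage received an even spray of the diluted emulsion. Herbicidal or crop effect was judged three weeks afterwards.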

[13] = tested on: barnyard grass; test: Test Example 5: herbicidal effect by foliage application, plastic box (Table 20, symbol H); assay type: in vivo, barnyard grass (Echinochloa crus-galli); settings: for herbicidal effect on barnyard grass (H): foliage application, three weeks after application
Procedure, shortened: as §4

[14] = tested on: wild oat; test: Test Example 5: herbicidal effect by foliage application, plastic box (Table 20, symbol I); assay type: in vivo, wild oat (Avena fatua); settings: for herbicidal effect on wild oat (I): foliage application, three weeks after application
Procedure, shortened: as §4

[15] = tested on: blackgrass; test: Test Example 5: herbicidal effect by foliage application, plastic box (Table 20, symbol J); assay type: in vivo, blackgrass (Alopecurus myosuroides); settings: for herbicidal effect on blackgrass (J): foliage application, three weeks after application
Procedure, shortened: as §4

[16] = tested on: redroot pigweed; test: Test Example 5: herbicidal effect by foliage application, plastic box (Table 20, symbol N); assay type: in vivo, redroot pigweed (Amaranthus retroflexus); settings: foliage application after 14-day growth, evaluated three weeks after application
Procedure, shortened: as §4

[17] = tested on: chickweed; test: Test Example 5: herbicidal effect by foliage application, plastic box (Table 20, symbol P); assay type: in vivo, common chickweed (Stellaria media); settings: foliage application after 14-day growth, evaluated three weeks after application
Procedure, shortened: as §4

[18] = tested on: false cleavers; test: Test Example 5: herbicidal effect by foliage application, plastic box (Table 20, symbol Q); assay type: in vivo, false cleavers (Galium spurium); settings: foliage application, 320 g/ha, three weeks after application
Procedure, shortened: as §4

[19] = 320 g/ha, foliage application after 14-day growth, evaluated three weeks after application
[20] = amount of applied herbicide 320 g/ha, foliage application after 14-day growth, evaluated three weeks after application
[21] = amount of applied herbicide 320 g/ha

Structure (SMILES)	Herbicidal effect, A: late watergrass [1]	Herbicidal effect, B: Japanese bulrush [2]	herbicidal effect rating, B: Japanese bulrush [3]	herbicidal effect rating, C: oval-leafed pondweed [4]	Herbicidal effect by soil treatment, F: southern crabgrass [5]	Herbicidal effect by soil treatment, H: barnyard grass [6]	Herbicidal effect by soil treatment, I: wild oat [7]	Herbicidal effect by soil treatment, J: blackgrass [8]	Herbicidal effect by soil treatment, K: Italian ryegrass [9]	Herbicidal effect by soil treatment, N: redroot pigweed [10]	Herbicidal effect by soil treatment, Q: false cleavers [11]	F: southern crabgrass, herbicidal effect grade [5]	H: barnyard grass, herbicidal effect grade [6]	I: wild oat, herbicidal effect grade [7]	J: blackgrass, herbicidal effect grade [8]	K: Italian ryegrass, herbicidal effect grade [9]	N: redroot pigweed, herbicidal effect grade [10]	herbicidal effect on green foxtail (G) ([12]; 320 g/ha)	herbicidal effect on barnyard grass (H) ([13]; 320 g/ha)	herbicidal effect on wild oat (I) ([14]; 320 g/ha)	further results
Cc1nn(C)c(=O)c(-c2c(-c3ccc(Cl)c(F)c3)sc3c(F)cccc23)c1O [4-054]	3 (Herbicidal rate of 40% or more and less than 70%)	3 (Herbicidal rate of 40% or more and less than 70%)	2 (Herbicidal rate of 20% or more and less than 40%)	0 (Herbicidal rate of 5% or less (almost no effect))	0 (Herbicidal rate of 5% or less (almost no effect))	0 (Herbicidal rate of 5% or less (almost no effect))	0 (Herbicidal rate of 5% or less (almost no effect))	0 (Herbicidal rate of 5% or less (almost no effect))	0 (Herbicidal rate of 5% or less (almost no effect))	2 (Herbicidal rate of 20% or more and less than 40%)	0 (Herbicidal rate of 5% or less (almost no effect))										herbicidal effect on G: green foxtail (evaluation grade 0-5) [12, 19]: 3 (Herbicidal rate of 40% or more and less than 70%); herbicidal effect on H: barnyard grass (evaluation grade 0-5) [13, 19]: 4 (Herbicidal rate of 70% or more and less than 90%); herbicidal effect on I: wild oat (evaluation grade 0-5) [14, 19]: 0 (Herbicidal rate of 5% or less (almost no effect)); herbicidal effect on J: blackgrass (evaluation grade 0-5) [15, 19]: 0 (Herbicidal rate of 5% or less (almost no effect)); herbicidal effect on N: redroot pigweed (evaluation grade 0-5) ([16]; 320 g/ha): 5 (Herbicidal rate of 90% or more (almost completely withered)); herbicidal effect on P: chickweed (evaluation grade 0-5) ([17]; 320 g/ha): 5 (Herbicidal rate of 90% or more (almost completely withered))
Cc1nn(C)c(=O)c(-c2c(-c3ccc(Cl)cc3)sc3c(C)cccc23)c1O [4-102]	4 (Herbicidal rate of 70% or more and less than 90%)	0 (Herbicidal rate of 5% or less (almost no effect))	0 (Herbicidal rate of 5% or less (almost no effect))	0 (Herbicidal rate of 5% or less (almost no effect))	0 (Herbicidal rate of 5% or less (almost no effect))	0 (Herbicidal rate of 5% or less (almost no effect))	0 (Herbicidal rate of 5% or less (almost no effect))	0 (Herbicidal rate of 5% or less (almost no effect))	3 (Herbicidal rate of 40% or more and less than 70%)	4 (Herbicidal rate of 70% or more and less than 90%)	0 (Herbicidal rate of 5% or less (almost no effect))										Herbicidal effect by foliage application, G: green foxtail [12, 20]: 0 (Herbicidal rate of 5% or less (almost no effect)); Herbicidal effect by foliage application, H: barnyard grass [13, 20]: 0 (Herbicidal rate of 5% or less (almost no effect)); Herbicidal effect by foliage application, I: wild oat [14, 20]: 0 (Herbicidal rate of 5% or less (almost no effect)); Herbicidal effect by foliage application, J: blackgrass [15, 20]: 0 (Herbicidal rate of 5% or less (almost no effect)); Herbicidal effect by foliage application, N: redroot pigweed [16, 21]: 5 (Herbicidal rate of 90% or more (almost completely withered)); Herbicidal effect by foliage application, P: chickweed [17, 21]: 5 (Herbicidal rate of 90% or more (almost completely withered))
Cc1ccc2oc(-c3ccc4c(c3)OCCO4)c(-c3c(O)c(C)nn(C)c3=O)c2c1 [9-012]	4 (Herbicidal rate of 70% or more and less than 90%)	5 (Herbicidal rate of 90% or more (almost completely withered))	4 (Herbicidal rate of 70% or more and less than 90%)	5 (Herbicidal rate of 90% or more (almost completely withered))								2 (Herbicidal rate of 20% or more and less than 40%)	2 (Herbicidal rate of 20% or more and less than 40%)	0 (Herbicidal rate of 5% or less (almost no effect))	0 (Herbicidal rate of 5% or less (almost no effect))	4 (Herbicidal rate of 70% or more and less than 90%)	3 (Herbicidal rate of 40% or more and less than 70%)	2 (Herbicidal rate of 20% or more and less than 40%)	3 (Herbicidal rate of 40% or more and less than 70%)	0 (Herbicidal rate of 5% or less (almost no effect))	herbicidal effect on blackgrass (J) ([15]; 320 g/ha): 0 (Herbicidal rate of 5% or less (almost no effect)); herbicidal effect on false cleavers (Q) [18]: 3 (Herbicidal rate of 40% or more and less than 70%)
Cc1nn(C)c(=O)c(-c2c(-c3ccc(OCC(C)C)cc3)oc3ccc(F)cc23)c1O [9-027]	5 (Herbicidal rate of 90% or more (almost completely withered))	5 (Herbicidal rate of 90% or more (almost completely withered))	3 (Herbicidal rate of 40% or more and less than 70%)	4 (Herbicidal rate of 70% or more and less than 90%)								5 (Herbicidal rate of 90% or more (almost completely withered))	4 (Herbicidal rate of 70% or more and less than 90%)	0 (Herbicidal rate of 5% or less (almost no effect))	4 (Herbicidal rate of 70% or more and less than 90%)	4 (Herbicidal rate of 70% or more and less than 90%)	5 (Herbicidal rate of 90% or more (almost completely withered))	5 (Herbicidal rate of 90% or more (almost completely withered))	5 (Herbicidal rate of 90% or more (almost completely withered))	4 (Herbicidal rate of 70% or more and less than 90%)	Q: false cleavers, herbicidal effect grade [11]: 0 (Herbicidal rate of 5% or less (almost no effect)); herbicidal effect on blackgrass (J) ([15]; 320 g/ha): 5 (Herbicidal rate of 90% or more (almost completely withered))
